Data reported in patent US20090105206A1, “Copper Melphalan And Copper Tegafur As Anti-Tumor Agents” (priority 2004, published 2009).
Several values for one entry are separate records, joined by “and”; a condition that tells them apart may be missing. Identical values can stand only once.

Legend:
OVCAR-3/P19 tumor cells = assay: Example 6: NOD/SCID mice s.c. injected with OVCAR-3 tumor cells; assay type: in vivo, female NOD/SCID mice; design: Vol (tumor volume) Day 20 / Vol (tumor volume) Day 30 / Vol (tumor volume) Day 37: unit: cm^3
Protocol: 2×10^6 OVCAR-3/P19 tumor cells were s.c. injected into female NOD/SCID mice. The mice were treated as follows.
The treatment began with a mean tumor volume of 80 mm^3.
To level possible differences in tumor volume at the start of treatment in the individual groups and to make evident differences owing to the low absolute volumes in the treatment groups, the relative tumor volumes (RTV) have been analyzed. The relative tumor volume results from the ratio of the volume on day x and the tumor volume at the start of treatment in the same test animal. […] The tumor growth was stopped in group 2 after just 7 days. After 3 days of constant tumor volume a tumor regression began from day 30 (10th day of treatment) in the test animals treated with copper-melphalan.

[1] = Gr. 3, 7.5 mg/kg copper-melphalan i.p., individual animals
[2] = Gr. 3, 7.5 mg/kg copper-melphalan i.p., n = 8
[3] = Gr. 3, 7.5 mg/kg copper-melphalan i.p., n = 8, baseline
[4] = Gr. 3, 7.5 mg/kg copper-melphalan vs 5 mg/kg melphalan
[5] = Gr. 3, 7.5 mg/kg copper-melphalan vs 5 mg/kg melphalan, baseline
[6] = Gr. 3, 7.5 mg/kg copper-melphalan vs control (PBS)

In the case of `N[C@@H](Cc1ccc(N(CCCl)CCCl)cc1)C(=O)[O-].N[C@@H](Cc1ccc(N(CCCl)CCCl)cc1)C(=O)[O-].O.O.[Cu+2]` [Cu(melphalan)2], the chemical stability (blue solid) is reported as “chemically stable”, the “effectiveness compared with melphalan” value (investigations of kidney cell carcinoma and lung metastases formation) is reported as “much more effective than melphalan” and the “effectiveness compared with melphalan (RTV, FIG. 9)” value (OVCAR-3/P19 tumor cells; 7.5 mg/kg copper-melphalan vs 5 mg/kg melphalan i.p.) is reported as “more effective than melphalan”. For the same compound, the “day from which tumor regression began” value (OVCAR-3/P19 tumor cells; 7.5 mg/kg i.p., 10th day of treatment, after 3 days of constant tumor volume) was 30 days, the “mice with tumor regression on day 37” value (OVCAR-3/P19 tumor cells; Gr. 3, 7.5 mg/kg copper-melphalan) was 88% and the “Vol (tumor volume) Day 20” value (OVCAR-3/P19 tumor cells; Gr. 3, 7.5 mg/kg copper-melphalan i.p. days 21-37 every 2nd day, Day 20 = start of treatment (baseline), individual animals) was 0.08 and 0.11 and 0.05 and 0.04 and 0.10 and 0.02 and 0.09 and 0.12. The “RTV (relative tumor volume) Day 20” value (OVCAR-3/P19 tumor cells; Gr. 3, 7.5 mg/kg copper-melphalan i.p., baseline, individual animals) was 1.00, the “RTV (relative tumor volume) Day 30” value (OVCAR-3/P19 tumor cells; [1]) was 1.63 and 1.36 and 2.20 and 1.75 and 1.90 and 2.50 and 1.78 and 1.83 and the “RTV (relative tumor volume) Day 37” value (OVCAR-3/P19 tumor cells; [1]) was 2.78 and 0.63 and 0.43 and 0.78 and 0.67 and 0.70 and 0.60 and 0.51. For the same compound, the “Vol (tumor volume) Day 30” value (OVCAR-3/P19 tumor cells; [1]) was 0.13 and 0.15 and 0.11 and 0.07 and 0.19 and 0.05 and 0.16 and 0.22, the “Vol (tumor volume) Day 37” value (OVCAR-3/P19 tumor cells; [1]) was 0.05 (3×) and 0.14 and 0.03 and 0.07 and 0.01 and 0.06 and the “RTV Day 30, mean” value (OVCAR-3/P19 tumor cells; [2]) was 1.87. For the same compound, the “RTV Day 30, median” value (OVCAR-3/P19 tumor cells; [2]) was 1.81, the “RTV Day 37, mean” value (OVCAR-3/P19 tumor cells; [2]) was 0.89 and the “RTV Day 37, median” value (OVCAR-3/P19 tumor cells; [2]) was 0.65. The “Vol Day 30, mean” value (OVCAR-3/P19 tumor cells; [2]) was 0.14, the “Vol Day 30, median” value (OVCAR-3/P19 tumor cells; [2]) was 0.14 and the “Vol Day 37, mean” value (OVCAR-3/P19 tumor cells; [2]) was 0.06. For the same compound, the “Vol Day 37, median” value (OVCAR-3/P19 tumor cells; [2]) was 0.05, the “RTV Day 20, mean” value (OVCAR-3/P19 tumor cells; [3]) was 1.00 and the “RTV Day 20, median” value (OVCAR-3/P19 tumor cells; [3]) was 1.00. The “Vol Day 20, mean” value (OVCAR-3/P19 tumor cells; [3]) was 0.08, the “Vol Day 20, median” value (OVCAR-3/P19 tumor cells; [3]) was 0.09 and the “RTV Day 30, mean in % of group 2” value (OVCAR-3/P19 tumor cells; [4]) was 82.1%. For the same compound, the “RTV Day 30, median in % of group 2” value (OVCAR-3/P19 tumor cells; [4]) was 76.8%, the “RTV Day 37, mean in % of group 2” value (OVCAR-3/P19 tumor cells; [4]) was 61.3% and the “RTV Day 37, median in % of group 2” value (OVCAR-3/P19 tumor cells; [4]) was 45.7%. The “Vol Day 30, mean in % of group 2” value (OVCAR-3/P19 tumor cells; [4]) was 80.6%, the “Vol Day 30, median in % of group 2” value (OVCAR-3/P19 tumor cells; [4]) was 93.3% and the “Vol Day 37, mean in % of group 2” value (OVCAR-3/P19 tumor cells; [4]) was 55.1%. The “Vol Day 37, median in % of group 2” value (OVCAR-3/P19 tumor cells; [4]) was 63.4%, the “RTV Day 20, mean in % of group 2” value (OVCAR-3/P19 tumor cells; [5]) was 100.0% and the “RTV Day 20, median in % of group 2” value (OVCAR-3/P19 tumor cells; [5]) was 100.0%. For the same compound, the “Vol Day 20, mean in % of group 2” value (OVCAR-3/P19 tumor cells; [5]) was 89.7%, the “Vol Day 20, median in % of group 2” value (OVCAR-3/P19 tumor cells; [5]) was 113.3% and the “RTV Day 30, mean in % of group 1” value (OVCAR-3/P19 tumor cells; [6]) was 31.5%. The “RTV Day 30, median in % of group 1” value (OVCAR-3/P19 tumor cells; [6]) was 44.8%, the “RTV Day 37, mean in % of group 1” value (OVCAR-3/P19 tumor cells; [6]) was 8.2% and the “RTV Day 37, median in % of group 1” value (OVCAR-3/P19 tumor cells; [6]) was 8.0%.
